Source: PMC10782561 (Chemico-biological interactions, 2023)
Like-named read-outs stand apart in the source and are kept apart here.

Legend:
[1] = format: in vivo, human
[2] = system: Salmonella strains TA100, TA 97a, TA98 and TA102; conditions: cited from earlier work
[3] = molecular target: human CYP1A2 (Homo sapiens, UniProt P05177); experiment: Phe inhibition of human CYP1A2, P450-Glo assay; format: biochemical
[4] = [14C]-BaP metabolite in human plasma, 0-48 h, BaP + Phe dose, mean ± SD
[5] = [14C]-BaP metabolite in human plasma, 0-48 h, BaP only dose, mean ± SD
[6] = [14C]-BaP metabolite in human plasma, BaP + Phe dose, mean ± SD
[7] = [14C]-BaP metabolite in human plasma, BaP only dose, mean ± SD

human CYP1A2, sequence (P05177 whole entry): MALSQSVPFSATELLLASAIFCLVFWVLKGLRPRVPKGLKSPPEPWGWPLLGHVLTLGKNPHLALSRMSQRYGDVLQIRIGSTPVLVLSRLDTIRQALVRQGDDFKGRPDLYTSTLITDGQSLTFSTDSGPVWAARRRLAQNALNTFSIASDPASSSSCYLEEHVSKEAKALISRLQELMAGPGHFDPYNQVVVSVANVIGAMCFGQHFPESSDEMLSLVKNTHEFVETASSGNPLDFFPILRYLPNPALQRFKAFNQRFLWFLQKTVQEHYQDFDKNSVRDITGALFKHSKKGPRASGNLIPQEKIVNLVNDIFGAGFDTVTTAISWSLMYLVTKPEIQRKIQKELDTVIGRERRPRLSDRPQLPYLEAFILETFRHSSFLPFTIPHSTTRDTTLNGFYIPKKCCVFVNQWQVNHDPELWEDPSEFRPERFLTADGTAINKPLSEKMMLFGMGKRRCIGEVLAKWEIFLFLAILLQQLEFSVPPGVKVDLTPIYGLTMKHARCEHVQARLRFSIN

| SMILES | AUC [1, 4] [fg BaP/mL×h] | AUC [1, 5] [fg BaP/mL×h] | AUC(0,∞) [1, 6] [fg BaP/mL×h] | Cmax [1, 6] [fg BaP/mL] | T1/2 [1, 6] [h] | Tmax [1, 6] [h] | AUC(0,∞) [1, 7] [fg BaP/mL×h] | Cmax [1, 7] [fg BaP/mL] | T1/2 [1, 7] [h] | Tmax [1, 7] [h] | also measured |
| --- | --- | --- | --- | --- | --- | --- | --- | --- | --- | --- | --- |
| Oc1ccc2ccc3c4ccccc4cc4ccc1c2c43 [3-OH] | 5.90 ± 4.33 | 9.99 ± 7.43 | 5.90 ± 4.33 | 2.00 ± 1.03 | 1.59 ± 0.36 | 2.2 ± 0.8 | 9.99 ± 7.43 | 4.85 ± 3.31 | 1.85 ± 0.56 | 1.7 ± 0.8 | – |
| Cc1cccc2c1ccc1cc(C(C)C)ccc12 [Retene, 7-isopropyl-1-methylphenanthrene] | – | – | – | – | – | – | – | – | – | – | mutagenicity [2]: negative |
| c1ccc2c(c1)cc1ccc3cccc4ccc2c1c34 [[^14C]-BaP, benzo[a]pyrene] | – | – | – | – | – | – | – | – | – | – | Cl ([1]; both, human, in vivo): 3707 ± 2267 L/h; Vd ([1]; both, human, in vivo): 17550 ± 9725 L; half-life ([1]; both, human, in vivo, T1/2): 4.78 ± 4.45 h; Tmax ([1]; both, human, in vivo, Tmax): 1.1 ± 1.1 h; half-life ([1]; both, human, in vivo, po, T1/2 in blood): 1.1 ± 1.1 h; AUC ([1]; human, in vivo): 17.88 ± 9.56 fg BaP/mL×h; AUC(0,∞) ([1]; human, in vivo): 17.88 ± 9.56 fg BaP/mL×h |
| O[C@H]1C=Cc2c(cc3ccc4cccc5ccc2c3c45)[C@@H]1O (racemic) [7,8-dihydrodiol, (±) trans-benzo[a]pyrene-7,8-dihydrodiol] | 10.53 ± 9.26 | 28.04 ± 34.04 | 10.53 ± 9.26 | 2.54 ± 2.07 | 2.25 ± 0.55 | 2.3 ± 1.2 | 28.04 ± 34.04 | 4.12 ± 3.04 | 4.72 ± 4.18 | 1.7 ± 0.8 | – |
| c1ccc2c(c1)ccc1ccccc12 [Phe, phenanthrene] | – | – | – | – | – | – | – | – | – | – | Ki [3]: 12.6 µM; type of inhibition of hCYP1A2 ([3]; Lineweaver-Burk plot): competitive |
| Oc1ccc2cc3ccc4cccc5ccc(c2c1)c3c45 [9-OH] | 0.74 ± 0.82 | 3.40 ± 3.83 | 0.74 ± 0.82 | 0.66 ± 0.38 | 1.40 ± 0.49 | 2.0 ± 0.7 | 3.40 ± 3.83 | 2.32 ± 2.36 | 1.33 ± 0.39 | 1.4 ± 0.7 | – |
